{"source": "ChEMBL document CHEMBL1130147", "about": "“Dihydrobenzofuran analogues of hallucinogens. 4. Mescaline derivatives” (J Med Chem, 1997)", "key": {"[1]": {"molecular_target": "T1, 5-hydroxytryptamine receptor 1A (Rattus norvegicus, UniProt P19327)", "T1 sequence (P19327 whole entry)": "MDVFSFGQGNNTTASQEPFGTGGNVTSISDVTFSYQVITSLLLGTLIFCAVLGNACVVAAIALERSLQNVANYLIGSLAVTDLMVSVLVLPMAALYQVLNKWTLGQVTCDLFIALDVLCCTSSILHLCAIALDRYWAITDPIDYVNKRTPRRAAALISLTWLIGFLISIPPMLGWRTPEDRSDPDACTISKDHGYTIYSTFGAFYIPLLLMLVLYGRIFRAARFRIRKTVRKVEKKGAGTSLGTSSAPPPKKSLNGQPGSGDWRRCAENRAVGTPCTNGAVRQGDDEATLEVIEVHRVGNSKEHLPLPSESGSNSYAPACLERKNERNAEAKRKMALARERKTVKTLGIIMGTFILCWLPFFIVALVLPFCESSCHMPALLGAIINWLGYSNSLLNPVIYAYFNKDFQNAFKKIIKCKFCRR", "test": "Ability to displace [3H]-8-OH-DPAT from rat hippocampal homogenate 5-hydroxytryptamine 1A receptor", "format": "tissue-based, Hippocampus"}, "[2]": {"molecular_target": "T2, 5-hydroxytryptamine receptor 2A (Rattus norvegicus, UniProt P14842)", "T2 sequence (P14842 whole entry)": "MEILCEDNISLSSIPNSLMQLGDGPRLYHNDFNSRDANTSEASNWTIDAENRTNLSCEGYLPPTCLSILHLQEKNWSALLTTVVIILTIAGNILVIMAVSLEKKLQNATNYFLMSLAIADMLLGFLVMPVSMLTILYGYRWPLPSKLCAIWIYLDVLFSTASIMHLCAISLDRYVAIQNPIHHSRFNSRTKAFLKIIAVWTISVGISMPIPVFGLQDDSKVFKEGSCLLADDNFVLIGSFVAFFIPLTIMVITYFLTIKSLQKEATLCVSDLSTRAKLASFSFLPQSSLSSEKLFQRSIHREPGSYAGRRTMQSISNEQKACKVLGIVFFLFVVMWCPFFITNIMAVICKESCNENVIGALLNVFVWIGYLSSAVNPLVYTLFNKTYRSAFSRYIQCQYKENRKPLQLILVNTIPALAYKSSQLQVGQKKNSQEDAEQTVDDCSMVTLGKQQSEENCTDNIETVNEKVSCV", "test": "Effect on phosphoinositide hydrolysis in NIH 3T3 fibroblast expressing 5-hydroxytryptamine 2A receptor", "format": "functional"}, "[3]": {"molecular_target": "T2, 5-hydroxytryptamine receptor 2A", "test": "Ability to displace [3H]ketanserin from rat cortical homogenate 5-hydroxytryptamine 2A receptor"}, "[4]": {"molecular_target": "T3, 5-hydroxytryptamine receptor 2B (Homo sapiens, UniProt P41595)", "T3 sequence (P41595 whole entry)": "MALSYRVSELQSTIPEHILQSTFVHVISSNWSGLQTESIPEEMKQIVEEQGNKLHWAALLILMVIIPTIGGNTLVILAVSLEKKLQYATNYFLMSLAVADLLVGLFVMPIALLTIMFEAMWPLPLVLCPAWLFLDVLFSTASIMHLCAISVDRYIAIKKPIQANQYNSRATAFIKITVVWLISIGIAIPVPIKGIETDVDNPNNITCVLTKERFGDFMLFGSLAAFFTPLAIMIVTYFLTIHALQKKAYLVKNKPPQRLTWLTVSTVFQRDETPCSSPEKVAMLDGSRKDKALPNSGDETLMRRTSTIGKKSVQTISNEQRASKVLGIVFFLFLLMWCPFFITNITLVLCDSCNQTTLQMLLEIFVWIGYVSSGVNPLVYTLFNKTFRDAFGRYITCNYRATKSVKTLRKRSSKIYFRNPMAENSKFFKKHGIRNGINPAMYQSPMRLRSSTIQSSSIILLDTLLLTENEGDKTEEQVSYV", "test": "Agonist activity at cloned human 5-hydroxytryptamine 2B receptor using [3H]5-HT radioligand", "format": "binding"}, "[5]": {"molecular_target": "T3, 5-hydroxytryptamine receptor 2B", "test": "Antagonist activity at cloned human 5-hydroxytryptamine 2B receptor using [3H]rauwolscine radioligand"}, "[6]": {"molecular_target": "T4, 5-hydroxytryptamine receptor 2C (Rattus norvegicus, UniProt P08909)", "T4 sequence (P08909 whole entry)": "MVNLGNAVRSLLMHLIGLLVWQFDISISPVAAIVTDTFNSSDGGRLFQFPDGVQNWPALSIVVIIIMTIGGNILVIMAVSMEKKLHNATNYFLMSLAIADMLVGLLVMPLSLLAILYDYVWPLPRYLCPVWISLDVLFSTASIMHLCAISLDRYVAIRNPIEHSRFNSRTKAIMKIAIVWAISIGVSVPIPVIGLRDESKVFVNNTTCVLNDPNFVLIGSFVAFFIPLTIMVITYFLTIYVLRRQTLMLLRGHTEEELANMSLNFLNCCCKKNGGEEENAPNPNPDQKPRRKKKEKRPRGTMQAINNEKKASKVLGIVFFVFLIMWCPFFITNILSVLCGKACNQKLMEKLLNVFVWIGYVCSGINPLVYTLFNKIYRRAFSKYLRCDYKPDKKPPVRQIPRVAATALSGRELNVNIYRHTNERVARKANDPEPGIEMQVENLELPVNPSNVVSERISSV", "test": "Effect on phosphoinositide hydrolysis in NIH 3T3 fibroblast 5-hydroxytryptamine 2C receptor", "format": "functional"}, "[7]": {"molecular_target": "T5, 5-hydroxytryptamine receptor 2C (Homo sapiens, UniProt P28335)", "T5 sequence (P28335 whole entry)": "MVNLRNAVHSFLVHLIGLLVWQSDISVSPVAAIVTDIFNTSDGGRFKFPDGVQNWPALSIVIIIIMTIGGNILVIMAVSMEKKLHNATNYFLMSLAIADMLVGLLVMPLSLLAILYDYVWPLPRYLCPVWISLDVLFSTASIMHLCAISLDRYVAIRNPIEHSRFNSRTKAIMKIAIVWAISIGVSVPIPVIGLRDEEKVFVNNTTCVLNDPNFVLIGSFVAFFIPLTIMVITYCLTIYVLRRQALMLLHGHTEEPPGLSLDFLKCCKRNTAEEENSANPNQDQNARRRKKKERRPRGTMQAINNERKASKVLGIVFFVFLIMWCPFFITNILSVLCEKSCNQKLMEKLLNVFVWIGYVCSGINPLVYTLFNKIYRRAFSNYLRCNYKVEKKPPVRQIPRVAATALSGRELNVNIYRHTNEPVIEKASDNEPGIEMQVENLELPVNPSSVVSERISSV", "test": "Agonist activity at cloned human 5-hydroxytryptamine 2C receptor using [125I]DOI radioligand", "format": "binding"}, "[8]": {"molecular_target": "T5, 5-hydroxytryptamine receptor 2C", "test": "Antagonist activity at cloned human 5-hydroxytryptamine 2C receptor using [3H]mesulergine radioligand"}, "[9]": {"species": "Rattus norvegicus", "test": "Effective dose showing 29% Drug Discrimination in LSD trained rats (number of animals tested = 8-12)", "format": "functional"}, "[10]": {"species": "Rattus norvegicus", "test": "Ability to inhibit accumulation [3H]5-HT in rat whole brain synaptosomes", "format": "functional"}, "[11]": {"species": "Rattus norvegicus", "test": "Ability to inhibit accumulation [3H]DA in rat whole brain synaptosomes", "format": "functional"}, "[12]": {"molecular_target": "T6, 5-hydroxytryptamine receptor 2A (Homo sapiens, UniProt P28223)", "T6 sequence (P28223 whole entry)": "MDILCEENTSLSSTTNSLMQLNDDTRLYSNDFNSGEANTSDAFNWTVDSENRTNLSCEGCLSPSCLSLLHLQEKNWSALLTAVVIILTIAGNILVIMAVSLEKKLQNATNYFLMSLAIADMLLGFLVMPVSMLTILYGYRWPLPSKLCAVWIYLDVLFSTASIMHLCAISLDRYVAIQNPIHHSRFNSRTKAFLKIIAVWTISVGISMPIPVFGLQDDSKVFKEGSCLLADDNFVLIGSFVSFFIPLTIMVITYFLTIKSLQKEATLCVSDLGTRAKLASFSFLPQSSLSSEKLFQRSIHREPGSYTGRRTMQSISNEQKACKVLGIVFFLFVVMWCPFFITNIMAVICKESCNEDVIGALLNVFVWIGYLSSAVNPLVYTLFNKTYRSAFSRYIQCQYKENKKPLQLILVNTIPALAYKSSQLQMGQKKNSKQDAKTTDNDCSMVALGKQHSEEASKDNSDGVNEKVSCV", "test": "Agonist activity at cloned human 5-hydroxytryptamine 2A receptor using [125I]DOI radioligand"}, "[13]": {"molecular_target": "T6, 5-hydroxytryptamine receptor 2A", "test": "Antagonist activity at cloned human 5-hydroxytryptamine 2A receptor using [3H]-Ketanserin radioligand"}, "[14]": {"molecular_target": "T2, 5-hydroxytryptamine receptor 2A", "test": "Effect on phosphoinositide hydrolysis in NIH 3T3 fibroblast 5-hydroxytryptamine 2A receptor", "format": "functional"}, "[15]": {"molecular_target": "T3, 5-hydroxytryptamine receptor 2B", "test": "Antagonist activity at cloned human 5-hydroxytryptamine 2B receptor using [3H]- rauwolscine radioligand"}, "[16]": {"species": "Rattus norvegicus", "test": "Effective dose showing 50% Drug Discrimination in LSD trained rats (number of animals tested = 8-12)", "format": "functional"}, "[17]": {"test": "Partition coefficient (logP)", "format": "physicochemical", "details": "octanol/water"}}, "data": [{"smiles": "COc1cc(CCN)c2c(c1OC)OCC2", "values": [{"measurement": "Ki", "setting": "[1]", "value": 6.2, "unit": "µM"}, {"measurement": "EC50", "setting": "[2]", "value": 3, "unit": "µM"}, {"measurement": "Ki", "setting": "[3]", "value": 2.5, "unit": "µM"}, {"measurement": "Ki", "setting": "[4]", "value": 0.523, "unit": "µM"}, {"measurement": "Ki", "setting": "[5]", "value": 0.311, "unit": "µM"}, {"measurement": "EC50", "setting": "[6]", "value": 2, "unit": "µM"}, {"measurement": "Ki", "setting": "[7]", "value": 0.118, "unit": "µM"}, {"measurement": "Ki", "setting": "[8]", "value": 1.1, "unit": "µM"}, {"measurement": "ED50", "setting": "[9]", "value": 57.8, "unit": "µmol/kg"}, {"measurement": "IC50", "setting": "[10]", "value": "> 10", "unit": "µM"}, {"measurement": "IC50", "setting": "[11]", "value": "> 10", "unit": "µM"}]}, {"smiles": "COc1c2c(c(CCN)c3c1OCC3)CCO2", "values": [{"measurement": "Ki", "setting": "[12]", "value": 0.335, "unit": "µM"}, {"measurement": "Ki", "setting": "[13]", "value": 4.44, "unit": "µM"}, {"measurement": "EC50", "setting": "[14]", "value": 2, "unit": "µM"}, {"measurement": "Ki", "setting": "[4]", "value": 0.301, "unit": "µM"}, {"measurement": "Ki", "setting": "[15]", "value": 0.205, "unit": "µM"}, {"measurement": "EC50", "setting": "[6]", "value": 1, "unit": "µM"}, {"measurement": "Ki", "setting": "[7]", "value": 0.0615, "unit": "µM"}, {"measurement": "Ki", "setting": "[8]", "value": 0.654, "unit": "µM"}, {"measurement": "ED50", "setting": "[9]", "value": 55.2, "unit": "µmol/kg"}, {"measurement": "IC50", "setting": "[10]", "value": "> 10", "unit": "µM"}, {"measurement": "IC50", "setting": "[11]", "value": "> 10", "unit": "µM"}]}, {"smiles": "CCOc1c(OC)cc(CCN)cc1OC", "values": [{"measurement": "Ki", "setting": "[1]", "value": 6.9, "unit": "µM"}, {"measurement": "Ki", "setting": "[12]", "value": 0.216, "unit": "µM"}, {"measurement": "EC50", "setting": "[14]", "value": 4, "unit": "µM"}, {"measurement": "Ki", "setting": "[3]", "value": 2.1, "unit": "µM"}, {"measurement": "Ki", "setting": "[4]", "value": 0.555, "unit": "µM"}, {"measurement": "EC50", "setting": "[6]", "value": 2, "unit": "µM"}, {"measurement": "Ki", "setting": "[7]", "value": 0.177, "unit": "µM"}, {"measurement": "ED50", "setting": "[16]", "value": 16.2, "unit": "µmol/kg"}, {"measurement": "IC50", "setting": "[10]", "value": "> 10", "unit": "µM"}, {"measurement": "IC50", "setting": "[11]", "value": "> 10", "unit": "µM"}]}, {"smiles": "COc1cc(CCN)cc(OC)c1OC", "note": "[MESCALINE]", "values": [{"measurement": "Ki", "setting": "[1]", "value": 6.9, "unit": "µM"}, {"measurement": "Ki", "setting": "[12]", "value": 0.551, "unit": "µM"}, {"measurement": "EC50", "setting": "[14]", "value": 4, "unit": "µM"}, {"measurement": "Ki", "setting": "[3]", "value": 5.5, "unit": "µM"}, {"measurement": "Ki", "setting": "[4]", "value": 0.795, "unit": "µM"}, {"measurement": "EC50", "setting": "[6]", "value": 24, "unit": "µM"}, {"measurement": "Ki", "setting": "[7]", "value": 0.303, "unit": "µM"}, {"measurement": "logP", "setting": "[17]", "value": 3.15}, {"measurement": "ED50", "setting": "[16]", "value": 33.5, "unit": "µmol/kg"}, {"measurement": "IC50", "setting": "[10]", "value": "> 10", "unit": "µM"}, {"measurement": "IC50", "setting": "[11]", "value": "> 10", "unit": "µM"}]}]}
